{"source": "paper PMC12452389", "about": "“Arginine-Derived Cationic Surfactants Containing Phenylalanine and Tryptophan: Evaluation of Antifungal Activity, Biofilm Eradication, Cytotoxicity, and Ecotoxicity” (Journal of Xenobiotics, 2025)", "key": {"[1]": {"test_system": "C. albicans biofilms", "test": "Eradication of mature biofilm, MTT method", "assay_type": "cell-based, Candida albicans", "settings": "for concentration removing the total viability of the biofilm: 24 h treatment", "protocol": "(§1) Candida strains were cultured in SBA at 30 °C for 24 h. Yeast cells were then suspended in RPMI 1640 broth to a final concentration of 1.5 × 10^7 CFU/mL. For mature biofilm formation, 200 μL of these suspensions was transferred to each well of a 48-well microplate and incubated at 30 °C for 24 h. After incubation, the plate was washed with phosphate-buffered saline (PBS) to remove non-adherent cells. Then, surfactant solutions at various concentrations (200 μL), prepared in RPMI 1640, were added to the wells containing the mature biofilms. Plates were incubated again at 30 °C for 24 h. Following this treatment, the RPMI medium was removed, and wells were washed twice with PBS. To assess biofilm viability, 200 μL of MTT solution (3-(4,5-dimethylthiazol-2-yl)-2,5-diphenyltetrazolium bromide) were added to each well, and plates were incubated for 4 h. After incubation, the MTT solution was removed, and 200 μL of dimethyl sulfoxide (DMSO) were added to solubilize the formazan crystals. Absorbance at 540 nm (A540) was then measured using a microplate reader. Controls without the amino acid-based surfactants were included. All experiments were made in quadruplicate, and the results were averaged to ensure accuracy and reproducibility.\n(§2) In this section, we have tested the ability of these cationic surfactants to eradicate mature fungal biofilms of C. albicans and C. tropicalis. Preformed biofilms of these two strains on 48-well plates were exposed to various concentrations of the synthesized surfactants, and the biofilm was not removed after the treatment was quantified using the MTT method (3-[4,5-dimethylthiazol-2-yl]-2,5 diphenyl tetrazolium bromide) (Figure 4). This method detects viable and metabolically active cells within the biofilm by measuring the reduction in MTT to formazan by active mitochondrial enzymes."}, "[2]": {"test_system": "C. tropicalis biofilms", "test": "Eradication of mature biofilm, MTT method", "assay_type": "cell-based, Candida tropicalis", "settings": "24 h treatment", "protocol": "as §1, §2"}, "[3]": {"test_system": "3T3 cells", "test": "Cytotoxicity, MTT assay", "assay_type": "cell-based, Swiss mouse", "settings": "Mus musculus, NIH3T3; 3T3, MTT, 24 h; read from viability curves", "protocol": "(§3) Immortal human keratinocyte cells (HaCaT) and […] (3T3) were obtained from Celltec, University of Barcelona. Dulbecco’s Modified Eagle Medium (DMEM) (4.5 g/L glucose) supplemented with 10% (v/v) FBS, 2 mM L-glutamine, 100 U/mL of penicillin, and 100 μg/mL of streptomycin was used to grow the cells in 75 cm^2 culture flasks at 37 °C with a continuous supply of CO2 at a 5% level. Once cells reached about 80% confluence, they were trypsinized with trypsin-EDTA.\n(§4) Cells were first grown into the central 60 wells of a 96-well plate under 5% CO2 at 37 °C for 24 h. The DMEM was removed, and cells were exposed to different concentrations of each amphiphile diluted in DMEM supplemented with 5% FBS for 24 h. Finally, two different assays for quantification were used.\n(§5) This method relies on the ability of living cells to reduce the yellow MTT reagent into insoluble purple formazan crystals. After the cells were incubated with the surfactants’ solutions, the medium was eliminated, and 100 μL of MTT in PBS (5 mg/mL) diluted 1:10 in culture medium (without phenol red and FBS) was added to each well and co-incubated for 3 h. Then, the medium was discarded, and DMSO was added into each well to solubilize the formazan crystals. Finally, the absorbance of the resulting solutions was measured at 550 nm using a microplate reader (Bio-Rad 550 Hercules, CA, USA).\n(§6) The cytotoxic effects of these cationic surfactants were also evaluated using two different cell lines. The use of in vitro cytotoxicity tests is increasing daily, driven by the rise in human exposure to chemicals, as these tests are less costly and time-consuming than in vivo methods. The purpose of in vitro cytotoxicity tests is to detect the biocompatibility of these new surfactants. In this work, the cellular response upon incubation with the different surfactant series was evaluated in two representative skin cell lines: Swiss mouse fibroblasts (3T3 cell line) and human-derived keratinocytes (HaCaT cell line). The in vitro cytotoxicity was determined using the MTT as a measure of mitochondrial activity and the Neutral Red Uptake (NRU) related to lysosomal integrity, which are the most commonly used in vitro cytotoxicity endpoint methods. The cellular response at different concentrations (5, 25, 50, and 100 µM) was evaluated after 24 h of incubation."}, "[4]": {"test": "Cytotoxicity, MTT assay", "assay_type": "cell-based, Swiss mouse", "settings": "mouse, 3T3 fibroblast cells, 3T3, MTT, read-out: cell viability; for viability at 24 h, 50 µg/mL: at 50 µg/mL; for viability at 24 h, 100 µg/mL: at 100 µg/mL", "protocol": "as §3, §4, §5, §6"}, "[5]": {"test": "Cytotoxicity, MTT assay", "assay_type": "cell-based", "settings": "human, HaCaT keratinocyte cells, read-out: cell viability; for viability at 24 h, 50 µg/mL: at 50 µg/mL", "protocol": "as §3, §4, §5\nas §6, with “The use of in vitro cytotoxicity tests is increasing daily, driven by the rise in human exposure to chemicals, as these tests are less costly and time-consuming than in vivo methods. The purpose of in vitro cytotoxicity tests is to detect the biocompatibility of these new surfactants.” left out"}, "[6]": {"test_system": "3T3 cells", "test": "Cytotoxicity, Neutral Red Uptake (NRU) assay", "assay_type": "cell-based, Swiss mouse", "settings": "3T3, NRU, 24 h; moderate toxicity (TANHC12, PANHC12), onset of dramatic toxicity (PNHC12)", "protocol": "as §3, §4\n(§7) The NRU assay is based on the accumulation of neutral red dye within the lysosomes of viable, intact cells. Once the cells were incubated with the surfactants, the DMEM was removed, and the NRU dye solution (50 μg/mL dissolved in the medium without FBS and phenol red) was added to each well, and the reaction was allowed for 2 h. The cells were washed with PBS, and 100 μL of an aqueous solution containing 50% absolute ethanol and 1% acetic acid was then added to each well to extract the incorporated dye. The microplates were then stirred for 5 min at 25 °C to facilitate dissolution. Finally, the absorbance of the resulting solutions was measured at λ = 550 nm using a Bio-Rad 550 microplate reader (Hercules, CA, USA).\nas §6"}, "[7]": {"design": "method as in PMID 36559096", "settings": "CO2 Headspace test, pass level 60%; cited from earlier work"}, "[8]": {"test": "Cytotoxicity, Neutral Red Uptake (NRU) assay", "assay_type": "cell-based, Swiss mouse", "settings": "mouse, 3T3 fibroblast cells, 3T3, NRU, across the full concentration range, read-out: cell viability", "protocol": "as §3, §4, §7, §6"}}, "note": "Structures can show the parent of a compound that is named as a salt. Where two headings read alike, the source gives them in different places. Peptide text beside a SMILES is read from it. * marks the point of attachment. Lauroyl = CCCCCCCCCCCC(=O)*"}
{"smiles": "CCCCCCCCCCCCCCNC(=O)C(CCCNC(=N)N)NC(=O)C(N)Cc1ccccc1", "note": "(centres unmarked) [PANHC14]", "values": [{"measurement": "concentration removing the total viability of the biofilm", "setting": "[1]", "result": "≈ 50 μM"}, {"measurement": "concentration removing the total viability of the biofilm", "setting": "[2]", "result": "≈ 50 μM"}]}
{"smiles": "CCCCCCCCCCCCNC(=O)C(N)Cc1ccccc1", "note": "(centres unmarked) [PNHC12, phenylalanine dodecyl amide hydrochloride]", "values": [{"measurement": "IC50", "setting": "[3]", "result": "< 50", "unit": "µg/mL"}, {"measurement": "viability at 24 h, 50 µg/mL", "setting": "[4]", "result": "~0", "unit": "%"}, {"measurement": "viability at 24 h, 50 µg/mL", "setting": "[5]", "result": 0, "unit": "%"}, {"measurement": "concentration at which toxicity was seen", "setting": "[6]", "result": 5000, "unit": "ng/mL"}, {"measurement": "biodegradation", "setting": "[7]", "result": "did not reach this pass level"}]}
{"smiles": "CCCCCCCCCCNC(=O)C(CCCNC(=N)N)NC(=O)C(N)Cc1c[nH]c2ccccc12", "note": "(centres unmarked) [TANHC10]", "values": [{"measurement": "viability at 24 h", "setting": "[5]; across the concentration range (TANHCn series)", "result": "~80", "unit": "%"}]}
{"smiles": "CCCCCCCCCCCC(=O)NC(Cc1ccccc1)C(=O)NC(CCCNC(=N)N)C(=O)OC", "note": "(stereo not drawn) [C12PAM] (Lauroyl-Phe-Arg-OMe; configuration not given here)", "values": [{"measurement": "reduction of the metabolic activity of the biofilm", "setting": "[1]; highest concentration tested", "result": "less than 65%"}, {"measurement": "viability at 24 h, 100 µg/mL", "setting": "[4]", "result": "~60", "unit": "%"}, {"measurement": "viability at 24 h", "setting": "[8]", "result": "60 to 100", "unit": "%"}, {"measurement": "biodegradation", "setting": "[7]", "result": "over 60%"}]}
{"smiles": "CCCCCCCCCCCCNC(=O)C(CCCNC(=N)N)NC(=O)C(N)Cc1c[nH]c2ccccc12", "note": "(centres unmarked) [TANHC12]", "values": [{"measurement": "concentration at which toxicity was seen", "setting": "[6]", "result": "around 50 µg/mL"}, {"measurement": "biodegradation", "setting": "[7]", "result": "did not reach this pass level"}]}
{"smiles": "CCCCCCCCCCCC(=O)NC(CCCNC(=N)N)C(=O)OC", "note": "(centres unmarked) [C12AM]", "values": [{"measurement": "viability at 24 h", "setting": "[4]; across all concentrations up to 100 µg/mL", "result": "> 85", "unit": "%"}, {"measurement": "viability at 24 h, 50 µg/mL", "setting": "[5]", "result": "~90", "unit": "%"}, {"measurement": "viability at 24 h", "setting": "[8]", "result": 100, "unit": "%"}, {"measurement": "biodegradation", "setting": "[7]", "result": "over 60%"}]}
{"smiles": "CCCCCCCCCCNC(=O)C(CCCNC(=N)N)NC(=O)C(N)Cc1ccccc1", "note": "(centres unmarked) [PANHC10]", "values": [{"measurement": "concentration removing the total viability of the biofilm", "setting": "[1]", "result": "≈ 400 μM"}, {"measurement": "concentration removing the total viability of the biofilm", "setting": "[2]", "result": "≈ 400 μM"}]}
{"smiles": "CCCCCCCCCCCCNC(=O)C(CCCNC(=N)N)NC(=O)C(N)Cc1ccccc1", "note": "(centres unmarked) [PANHC12, phenylalanine-arginine dodecyl amide dihydrochloride]", "values": [{"measurement": "concentration removing the total viability of the biofilm", "setting": "[1]", "result": "≈ 50 μM"}, {"measurement": "viability at 24 h, 50 µg/mL", "setting": "[4]", "result": "~70", "unit": "%"}, {"measurement": "viability at 24 h, 100 µg/mL", "setting": "[4]", "result": 5, "unit": "%"}, {"measurement": "concentration removing the total viability of the biofilm", "setting": "[2]", "result": "≈ 50 μM"}, {"measurement": "concentration at which toxicity was seen", "setting": "[6]", "result": "around 50 µg/mL"}, {"measurement": "biodegradation", "setting": "[7]", "result": "did not reach this pass level"}]}
